The target in one assay is rat brain SERT (Rattus norvegicus, UniProt P31652). In words: biochemical.
The target of assay [1] is cloned human H3 receptor, stably expressed in SK-N-MC cells (Homo sapiens, UniProt Q9Y5N1). In words: H3 receptor binding.
The target of the next assay is human H3 receptor (Homo sapiens, UniProt Q9Y5N1). In words: Cyclic AMP accumulation (reporter gene assay, SK-N-MC cells). In general terms: In a reporter assay the amount or activity of a reporter protein is the signal.
Assay [2] concerns the target human SERT (HEK293 membranes) (Homo sapiens, UniProt P31645). The assay can be described thus: biochemical.
Description: Homogenized HEK293 (Human Embryonic Kidney) membranes expressing the human SERT were incubated with ^3H-citalopram (SERT) at rt for 1 h in 50 mM Tris, 120 mM NaCl, 5 mM KCl (pH 7.4). Nonspecific binding was determined in the presence of 10 μM fluoxetine for the SERT. The membranes were washed and the radioactivity was counted as above.

Sequence of cloned human H3 receptor, stably expressed in SK-N-MC cells (Q9Y5N1 whole entry): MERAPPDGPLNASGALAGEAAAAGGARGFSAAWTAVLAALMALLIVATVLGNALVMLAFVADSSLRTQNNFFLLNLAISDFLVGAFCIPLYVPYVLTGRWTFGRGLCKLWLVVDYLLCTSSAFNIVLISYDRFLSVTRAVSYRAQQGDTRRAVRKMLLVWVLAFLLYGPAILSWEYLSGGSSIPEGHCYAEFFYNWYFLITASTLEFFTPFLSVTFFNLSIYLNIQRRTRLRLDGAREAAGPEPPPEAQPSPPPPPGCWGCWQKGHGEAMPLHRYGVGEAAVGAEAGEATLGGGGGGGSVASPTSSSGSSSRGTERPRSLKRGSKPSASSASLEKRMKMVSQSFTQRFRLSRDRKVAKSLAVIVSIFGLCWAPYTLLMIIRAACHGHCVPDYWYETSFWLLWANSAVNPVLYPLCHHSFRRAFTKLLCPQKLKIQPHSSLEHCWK
Sequence of rat brain SERT (P31652 whole entry): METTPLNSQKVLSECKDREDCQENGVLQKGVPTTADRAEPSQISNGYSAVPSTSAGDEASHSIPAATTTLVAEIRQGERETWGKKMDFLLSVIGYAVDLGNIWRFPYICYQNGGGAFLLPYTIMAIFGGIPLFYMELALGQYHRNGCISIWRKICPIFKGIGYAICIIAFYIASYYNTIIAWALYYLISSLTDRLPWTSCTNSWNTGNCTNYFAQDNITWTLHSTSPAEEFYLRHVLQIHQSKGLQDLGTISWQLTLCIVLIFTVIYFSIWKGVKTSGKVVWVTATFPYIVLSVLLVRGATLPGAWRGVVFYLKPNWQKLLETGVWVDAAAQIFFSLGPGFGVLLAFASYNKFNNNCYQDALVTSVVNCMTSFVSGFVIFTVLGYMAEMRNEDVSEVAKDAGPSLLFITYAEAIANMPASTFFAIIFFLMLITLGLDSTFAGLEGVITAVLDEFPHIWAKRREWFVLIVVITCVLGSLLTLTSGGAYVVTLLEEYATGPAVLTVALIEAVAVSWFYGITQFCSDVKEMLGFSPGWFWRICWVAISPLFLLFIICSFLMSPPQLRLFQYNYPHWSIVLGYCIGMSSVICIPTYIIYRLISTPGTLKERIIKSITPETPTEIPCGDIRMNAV
Sequence of human H3 receptor (Q9Y5N1 whole entry): as the sequence (Q9Y5N1 whole entry) above
Sequence of human SERT (HEK293 membranes) (P31645 whole entry): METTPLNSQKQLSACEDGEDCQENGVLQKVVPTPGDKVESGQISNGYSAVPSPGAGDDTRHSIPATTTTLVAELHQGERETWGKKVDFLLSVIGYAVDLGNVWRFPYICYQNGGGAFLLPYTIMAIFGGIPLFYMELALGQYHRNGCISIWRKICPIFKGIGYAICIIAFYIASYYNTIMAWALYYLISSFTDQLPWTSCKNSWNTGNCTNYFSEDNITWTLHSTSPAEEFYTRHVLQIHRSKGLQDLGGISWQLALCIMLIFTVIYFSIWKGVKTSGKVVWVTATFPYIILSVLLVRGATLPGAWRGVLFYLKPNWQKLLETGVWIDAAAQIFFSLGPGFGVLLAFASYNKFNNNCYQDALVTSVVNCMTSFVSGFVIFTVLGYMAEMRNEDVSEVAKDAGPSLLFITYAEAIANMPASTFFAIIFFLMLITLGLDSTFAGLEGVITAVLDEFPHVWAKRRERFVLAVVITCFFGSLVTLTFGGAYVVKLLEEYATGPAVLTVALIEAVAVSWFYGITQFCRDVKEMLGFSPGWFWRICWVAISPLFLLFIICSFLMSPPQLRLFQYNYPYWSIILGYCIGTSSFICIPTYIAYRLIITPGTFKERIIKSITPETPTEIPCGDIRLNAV
Description for rat brain SERT: The supernatant was removed and re-centrifuged at 15,000 rpm for 30 min. […] Membranes were incubated with 0.6 nM [^3H]-Citalopram plus/minus test compounds for 60 min at 25° C. and harvested by rapid filtration over GF/C glass fiber filters (pretreated with 0.3% polyethylenimine) followed by four washes with ice-cold buffer. Nonspecific binding was defined in the presence of 100 μM fluoxetine.

With `CNCc1cc(C(=O)N2CCCN(C3CC3)CC2)ccc1Oc1cccc(F)c1F` [Example 32, (4-Cyclopropyl-[1,4]diazepan-1-yl)-[4-(2,3-difluoro-phenoxy)-3-methylaminomethyl-phenyl]-methanone], the results for the Ki (at rat brain SERT; in assay [1]) were 31 nM and 0.6 nM, respectively.
The like results for `CNCc1cc(C(=O)N2CCCN(C3CC3)CC2)ccc1Oc1ccc(F)cc1Cl` [Example 33, [4-(2-Chloro-4-fluoro-phenoxy)-3-methylaminomethyl-phenyl]-(4-cyclopropyl-[1,4]diazepan-1-yl)-methanone] were, in that order, 28 nM and 0.9 nM.
The like results for `CN(Cc1cc(C(=O)N2CCCN(C3CC3)CC2)ccc1Oc1ccc(Cl)cc1)C1CC1` [Example 34, {4-(4-Chloro-phenoxy)-3-[(cyclopropyl-methyl-amino)-methyl]-phenyl}-(4-cyclopropyl-[1,4]diazepan-1-yl)-methanone] were, in that order, 62 nM and 2 nM.
For `CNCc1cc(C(=O)N2CCCN(C3CC3)CC2)ccc1Oc1cccc(Cl)c1Cl` [Example 35, (4-Cyclopropyl-[1,4]diazepan-1-yl)-[4-(2,3-dichloro-phenoxy)-3-methylaminomethyl-phenyl]-methanone] the same measures were 15 nM and 2 nM.
For `Cc1ccc(Oc2ccc(C(=O)N3CCCN(C4CC4)CC3)cc2CN(C)C)cn1` [Example 36, (4-Cyclopropyl-[1,4]diazepan-1-yl)-[3-dimethylaminomethyl-4-(6-methyl-pyridin-3-yloxy)-phenyl]-methanone], the results for the Ki (on rat brain SERT; in assay [1]) were 59 nM and 2 nM, respectively.
The like results for `CNCc1cc(C(=O)N2CCCN(C3CC3)CC2)ccc1Sc1ccc(Cl)cc1` [Example 37, [4-(4-Chloro-phenylsulfanyl)-3-methylaminomethyl-phenyl]-(4-cyclopropyl-[1,4]diazepan-1-yl)-methanone] were, in that order, 5 nM and 2 nM.
For `CNCc1cc(C(=O)N2CCCN(C3CC3)CC2)ccc1Sc1ccccn1` [Example 38, (4-Cyclopropyl-[1,4]diazepan-1-yl)-[3-methylaminomethyl-4-(pyridin-2-ylsulfanyl)-phenyl]-methanone] the same measures were 5000 nM and 2 nM.
For `CNCc1cc(C(=O)N2CCCN(C3CC3)CC2)ccc1Oc1ccccn1` [Example 39, (4-Cyclopropyl-[1,4]diazepan-1-yl)-[3-methylaminomethyl-4-(pyridin-2-yloxy)-phenyl]-methanone] the same measures were 15 nM and 0.9 nM.
`O=C(c1ccc(CNC2CC2)c(Oc2cccnc2)c1)N1CCCN(C2CC2)CC1` [Example 40, [4-Cyclopropylaminomethyl-3-(pyridin-3-yloxy)-phenyl]-(4-cyclopropyl-[1,4]diazepan-1-yl)-methanone]: the Ki (in general, a measure of affinity in units of concentration, obtained from inhibition or displacement) on rat brain SERT came out at 5000 nM; in assay [1], 2 nM. For the same molecule, at human H3 receptor, the Kb was 0.501 nM.
The like results for `O=C(c1ccc(CN2CCCCC2)c(Oc2cccnc2)c1)N1CCCN(C2CC2)CC1` [Example 41, (4-Cyclopropyl-[1,4]diazepan-1-yl)-[4-piperidin-1-ylmethyl-3-(pyridin-3-yloxy)-phenyl]-methanone] were, in that order, 10000 nM, 1 nM and 0.0631 nM.
Take `CNCc1cc(C(=O)N2CCCN(C3CC3)CC2)ccc1OCc1ccc(Cl)c(Cl)c1` [Example 42, (4-Cyclopropyl-[1,4]diazepan-1-yl)-[4-(3,4-dichloro-benzyloxy)-3-methylaminomethyl-phenyl]-methanone]: the Ki on rat brain SERT was found to be 2 nM; in assay [1] it was 4 nM.
For `CNCc1cc(C(=O)N2CCCN(C3CC3)CC2)ccc1Sc1cc(C(F)(F)F)ccn1` [Example 47, (4-Cyclopropyl-[1,4]diazepan-1-yl)-[3-methylaminomethyl-4-(4-trifluoromethyl-pyridin-2-ylsulfanyl)-phenyl]-methanone] the same measures were 410 nM and 4 nM.
`CNCc1cc(C(=O)N2CCCN(C3CCC3)CC2)ccc1Oc1ccc(Cl)c(Cl)c1` [Example 48, (4-Cyclobutyl-[1,4]diazepan-1-yl)-[4-(3,4-dichloro-phenoxy)-3-methylaminomethyl-phenyl]-methanone]: the Ki on rat brain SERT was 7.9 nM; in assay [2], 9.8 nM; in assay [1], 5.2 nM.
For `Cc1ccc(Oc2cc(C(=O)N3CCCN(C(C)C)CC3)ccc2CN(C)C)c(C)n1` [Example 49, [4-Dimethylaminomethyl-3-(2,6-dimethyl-pyridin-3-yloxy)-phenyl]-(4-isopropyl-[1,4]diazepan-1-yl)-methanone], the Ki amounted to 2000 nM at rat brain SERT and 11 nM in assay [1].
As to `CC(C)N1CCCN(C(=O)c2ccc(CN3CCCCC3)c(OCc3ccccc3)c2)CC1` [Example 50, (3-Benzyloxy-4-piperidin-1-ylmethyl-phenyl)-(4-isopropyl-[1,4]diazepan-1-yl)-methanone], in assay [1], the Ki was 9 nM.
`O=C(c1ccc(CN2CCOCC2)c(Oc2cccnc2)c1)N1CCCN(C2CC2)CC1` [Example 51, (4-Cyclopropyl-[1,4]diazepan-1-yl)-[4-morpholin-4-ylmethyl-3-(pyridin-3-yloxy)-phenyl]-methanone] returned a Ki in assay [1] of 3 nM. Compared with the last molecule, the Ki is about 3-fold lower.
As for `CNCc1ccc(C(=O)N2CCCN(C3CC3)CC2)cc1Oc1ccc(Cl)c(Cl)c1` [Example 52, (4-Cyclopropyl-[1,4]diazepan-1-yl)-[3-(3,4-dichloro-phenoxy)-4-methylaminomethyl-phenyl]-methanone], the Ki was found to be 17 nM on rat brain SERT and 6 nM in assay [1].
Regarding `CC(C)N1CCCN(C(=O)c2ccc(CN3CCOC(CO)C3)c(Oc3ccccc3)c2)CC1` (stereo not shown) [Example 53, [4-(2-Hydroxymethyl-morpholin-4-ylmethyl)-3-phenoxy-phenyl]-(4-isopropyl-[1,4]diazepan-1-yl)-methanone], the Ki in assay [1] is 3 nM.
In assay [1], `COCCN(CCOC)Cc1ccc(C(=O)N2CCCN(C3CC3)CC2)cc1OCc1ccccc1` [Example 54, (3-Benzyloxy-4-{[bis-(2-methoxy-ethyl)-amino]-methyl}-phenyl)-(4-cyclopropyl-[1,4]diazepan-1-yl)-methanone] displayed a Ki of 2 nM.

(Values after patent US20080045508A1, “SUBSTITUTED AMINOMETHYL BENZAMIDE COMPOUNDS” (priority 2006, published 2008).)
